Patent US20120122860A1, “SOLID FORMS OF SULFONAMIDES AND AMINO ACIDS” (Plexxikon, Inc., priority 2009, published 2012)
pIC50: −log10 of the molar value.

Legend:
B-Raf V600E = B-Raf V600E (Homo sapiens, UniProt P15056, V600E); assay: Kinase activity assay, B-Raf V600E; type: biochemical; details: read-out: activity toward kinase B-Raf V600E, IC50
Kdr = Kdr (Homo sapiens, UniProt P35968); assay: Kinase activity assay, Kdr
MAP4K4 = MAP4K4 (Homo sapiens, UniProt O95819); assay: Kinase activity assay, MAP4K4
B-Raf = B-Raf (Homo sapiens, UniProt P15056); assay: Kinase activity assay, B-Raf; type: biochemical; details: read-out: activity toward kinase B-Raf, IC50
Sequence of B-Raf (P15056 whole entry): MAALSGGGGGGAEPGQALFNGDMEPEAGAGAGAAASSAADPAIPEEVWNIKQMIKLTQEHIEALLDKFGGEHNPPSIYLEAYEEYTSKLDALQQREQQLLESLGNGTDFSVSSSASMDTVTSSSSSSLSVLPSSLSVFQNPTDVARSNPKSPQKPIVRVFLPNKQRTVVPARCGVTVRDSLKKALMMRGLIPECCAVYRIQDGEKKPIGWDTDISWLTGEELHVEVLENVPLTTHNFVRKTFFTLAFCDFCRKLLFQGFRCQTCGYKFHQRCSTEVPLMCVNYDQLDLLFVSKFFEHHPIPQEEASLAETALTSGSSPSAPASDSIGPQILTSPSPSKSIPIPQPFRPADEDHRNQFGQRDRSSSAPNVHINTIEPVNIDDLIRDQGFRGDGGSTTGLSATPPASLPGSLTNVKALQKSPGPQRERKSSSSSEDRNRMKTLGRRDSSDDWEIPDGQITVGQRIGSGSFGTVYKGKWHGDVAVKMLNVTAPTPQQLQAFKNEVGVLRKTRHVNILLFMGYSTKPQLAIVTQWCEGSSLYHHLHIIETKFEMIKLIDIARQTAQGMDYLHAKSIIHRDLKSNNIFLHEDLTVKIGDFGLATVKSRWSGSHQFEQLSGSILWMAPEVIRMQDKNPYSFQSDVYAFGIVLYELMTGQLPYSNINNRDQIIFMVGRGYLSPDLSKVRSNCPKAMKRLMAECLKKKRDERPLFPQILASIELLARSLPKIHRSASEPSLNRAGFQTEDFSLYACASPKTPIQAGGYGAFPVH

Fms = Fms (Homo sapiens, UniProt P07333); assay: Kinase activity assay, Fms
Kit = Kit (Homo sapiens, UniProt P10721); assay: Kinase activity assay, Kit
Sequence of Kit (P10721 26-976): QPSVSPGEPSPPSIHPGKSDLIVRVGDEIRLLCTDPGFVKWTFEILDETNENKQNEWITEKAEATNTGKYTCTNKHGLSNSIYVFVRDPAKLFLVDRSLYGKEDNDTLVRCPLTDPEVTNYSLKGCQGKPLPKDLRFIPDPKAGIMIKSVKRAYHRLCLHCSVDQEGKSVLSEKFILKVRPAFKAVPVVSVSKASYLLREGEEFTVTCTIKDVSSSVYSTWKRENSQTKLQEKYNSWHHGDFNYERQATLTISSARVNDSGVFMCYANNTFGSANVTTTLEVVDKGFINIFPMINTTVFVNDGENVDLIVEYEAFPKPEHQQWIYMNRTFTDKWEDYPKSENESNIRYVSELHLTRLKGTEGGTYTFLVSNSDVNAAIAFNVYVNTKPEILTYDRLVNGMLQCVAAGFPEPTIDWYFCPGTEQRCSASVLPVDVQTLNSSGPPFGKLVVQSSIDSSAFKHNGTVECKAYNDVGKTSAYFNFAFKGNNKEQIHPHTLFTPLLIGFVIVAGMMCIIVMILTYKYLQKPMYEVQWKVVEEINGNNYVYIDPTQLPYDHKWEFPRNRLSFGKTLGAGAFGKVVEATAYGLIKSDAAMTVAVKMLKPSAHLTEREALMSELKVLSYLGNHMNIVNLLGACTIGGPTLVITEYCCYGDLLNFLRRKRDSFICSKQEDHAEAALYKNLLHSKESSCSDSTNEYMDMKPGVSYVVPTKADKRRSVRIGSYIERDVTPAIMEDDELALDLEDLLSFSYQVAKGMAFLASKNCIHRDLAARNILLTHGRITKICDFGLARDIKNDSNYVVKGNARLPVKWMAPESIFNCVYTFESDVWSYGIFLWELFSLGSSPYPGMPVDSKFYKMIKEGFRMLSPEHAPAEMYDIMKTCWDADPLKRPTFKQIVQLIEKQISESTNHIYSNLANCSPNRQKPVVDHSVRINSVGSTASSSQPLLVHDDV

Src = Src (Homo sapiens, UniProt P12931); assay: Kinase activity assay, Src
Sequence of Src (P12931 whole entry): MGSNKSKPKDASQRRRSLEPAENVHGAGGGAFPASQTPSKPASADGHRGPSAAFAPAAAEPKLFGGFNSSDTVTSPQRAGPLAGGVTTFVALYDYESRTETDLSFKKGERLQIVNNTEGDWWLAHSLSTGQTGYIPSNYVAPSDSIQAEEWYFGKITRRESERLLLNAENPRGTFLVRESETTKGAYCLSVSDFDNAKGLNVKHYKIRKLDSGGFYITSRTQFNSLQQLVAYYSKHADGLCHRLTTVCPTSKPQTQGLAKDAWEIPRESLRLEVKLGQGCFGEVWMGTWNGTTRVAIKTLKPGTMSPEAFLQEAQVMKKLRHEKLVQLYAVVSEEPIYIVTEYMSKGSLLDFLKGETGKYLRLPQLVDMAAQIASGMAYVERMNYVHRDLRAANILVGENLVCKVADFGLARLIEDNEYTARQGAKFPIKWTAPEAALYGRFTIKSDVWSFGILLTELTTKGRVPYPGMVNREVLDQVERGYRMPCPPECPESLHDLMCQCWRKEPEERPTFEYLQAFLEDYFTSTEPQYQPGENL

TEC = molecular target: T1, TEC (Homo sapiens, UniProt P42680); assay: Kinase activity assay, TEC
T1 sequence (P42680 1-631): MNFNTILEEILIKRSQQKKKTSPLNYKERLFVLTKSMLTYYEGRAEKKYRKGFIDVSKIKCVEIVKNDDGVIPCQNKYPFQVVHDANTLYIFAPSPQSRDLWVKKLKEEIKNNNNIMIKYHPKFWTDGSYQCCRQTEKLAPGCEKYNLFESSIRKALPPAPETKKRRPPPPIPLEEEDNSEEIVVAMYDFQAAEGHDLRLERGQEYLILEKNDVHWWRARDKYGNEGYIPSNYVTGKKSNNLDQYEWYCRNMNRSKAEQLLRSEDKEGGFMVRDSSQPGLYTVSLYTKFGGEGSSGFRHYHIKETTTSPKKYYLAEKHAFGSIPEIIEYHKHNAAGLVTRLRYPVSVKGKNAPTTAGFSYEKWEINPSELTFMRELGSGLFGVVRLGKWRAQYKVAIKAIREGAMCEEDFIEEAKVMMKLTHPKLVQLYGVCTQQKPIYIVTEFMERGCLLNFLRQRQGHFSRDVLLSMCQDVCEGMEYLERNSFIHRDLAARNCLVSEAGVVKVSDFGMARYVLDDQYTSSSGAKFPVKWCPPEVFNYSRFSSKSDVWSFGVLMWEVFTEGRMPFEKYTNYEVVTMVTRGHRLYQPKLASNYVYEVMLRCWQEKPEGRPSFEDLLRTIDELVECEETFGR

C-Raf = C-Raf (Homo sapiens, UniProt P04049); assay: Kinase activity assay, C-Raf
Sequence of C-Raf (P04049 whole entry): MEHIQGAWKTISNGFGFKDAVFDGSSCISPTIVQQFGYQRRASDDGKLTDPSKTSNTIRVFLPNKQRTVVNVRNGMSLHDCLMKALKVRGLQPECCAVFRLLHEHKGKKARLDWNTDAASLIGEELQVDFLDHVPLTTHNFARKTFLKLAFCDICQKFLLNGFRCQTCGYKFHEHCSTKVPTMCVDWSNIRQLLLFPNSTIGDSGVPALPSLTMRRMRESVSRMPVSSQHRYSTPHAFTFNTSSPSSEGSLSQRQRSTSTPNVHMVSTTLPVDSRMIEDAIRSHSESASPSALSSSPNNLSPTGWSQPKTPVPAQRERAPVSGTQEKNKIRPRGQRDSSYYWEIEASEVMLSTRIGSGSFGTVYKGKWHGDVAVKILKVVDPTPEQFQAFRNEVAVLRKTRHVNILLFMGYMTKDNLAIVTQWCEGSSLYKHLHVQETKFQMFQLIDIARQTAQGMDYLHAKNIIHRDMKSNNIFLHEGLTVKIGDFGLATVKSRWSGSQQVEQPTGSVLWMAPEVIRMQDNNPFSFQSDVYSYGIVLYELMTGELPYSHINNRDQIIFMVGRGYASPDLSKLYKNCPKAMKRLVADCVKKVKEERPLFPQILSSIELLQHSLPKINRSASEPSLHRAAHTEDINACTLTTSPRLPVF

A-Raf = molecular target: T2, A-Raf (Homo sapiens, UniProt P10398); assay: Kinase activity assay, A-Raf
T2 sequence (P10398 1-606): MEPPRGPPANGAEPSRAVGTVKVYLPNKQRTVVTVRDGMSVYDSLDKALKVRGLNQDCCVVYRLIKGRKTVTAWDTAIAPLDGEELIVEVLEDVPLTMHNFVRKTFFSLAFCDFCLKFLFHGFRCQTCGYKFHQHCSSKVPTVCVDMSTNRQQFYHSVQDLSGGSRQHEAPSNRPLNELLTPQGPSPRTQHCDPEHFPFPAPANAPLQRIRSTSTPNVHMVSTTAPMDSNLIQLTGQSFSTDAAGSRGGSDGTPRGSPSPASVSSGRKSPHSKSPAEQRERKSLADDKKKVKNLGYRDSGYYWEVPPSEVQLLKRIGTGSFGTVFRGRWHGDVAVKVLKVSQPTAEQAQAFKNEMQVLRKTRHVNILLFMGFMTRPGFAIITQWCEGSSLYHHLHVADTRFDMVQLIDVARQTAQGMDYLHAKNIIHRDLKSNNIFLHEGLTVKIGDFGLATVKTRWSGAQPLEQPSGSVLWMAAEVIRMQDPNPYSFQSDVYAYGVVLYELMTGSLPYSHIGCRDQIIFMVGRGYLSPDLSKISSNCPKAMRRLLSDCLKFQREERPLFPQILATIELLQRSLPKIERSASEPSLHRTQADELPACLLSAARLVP

Measured: pIC50

Sequence of Kdr (P35968 20-1356): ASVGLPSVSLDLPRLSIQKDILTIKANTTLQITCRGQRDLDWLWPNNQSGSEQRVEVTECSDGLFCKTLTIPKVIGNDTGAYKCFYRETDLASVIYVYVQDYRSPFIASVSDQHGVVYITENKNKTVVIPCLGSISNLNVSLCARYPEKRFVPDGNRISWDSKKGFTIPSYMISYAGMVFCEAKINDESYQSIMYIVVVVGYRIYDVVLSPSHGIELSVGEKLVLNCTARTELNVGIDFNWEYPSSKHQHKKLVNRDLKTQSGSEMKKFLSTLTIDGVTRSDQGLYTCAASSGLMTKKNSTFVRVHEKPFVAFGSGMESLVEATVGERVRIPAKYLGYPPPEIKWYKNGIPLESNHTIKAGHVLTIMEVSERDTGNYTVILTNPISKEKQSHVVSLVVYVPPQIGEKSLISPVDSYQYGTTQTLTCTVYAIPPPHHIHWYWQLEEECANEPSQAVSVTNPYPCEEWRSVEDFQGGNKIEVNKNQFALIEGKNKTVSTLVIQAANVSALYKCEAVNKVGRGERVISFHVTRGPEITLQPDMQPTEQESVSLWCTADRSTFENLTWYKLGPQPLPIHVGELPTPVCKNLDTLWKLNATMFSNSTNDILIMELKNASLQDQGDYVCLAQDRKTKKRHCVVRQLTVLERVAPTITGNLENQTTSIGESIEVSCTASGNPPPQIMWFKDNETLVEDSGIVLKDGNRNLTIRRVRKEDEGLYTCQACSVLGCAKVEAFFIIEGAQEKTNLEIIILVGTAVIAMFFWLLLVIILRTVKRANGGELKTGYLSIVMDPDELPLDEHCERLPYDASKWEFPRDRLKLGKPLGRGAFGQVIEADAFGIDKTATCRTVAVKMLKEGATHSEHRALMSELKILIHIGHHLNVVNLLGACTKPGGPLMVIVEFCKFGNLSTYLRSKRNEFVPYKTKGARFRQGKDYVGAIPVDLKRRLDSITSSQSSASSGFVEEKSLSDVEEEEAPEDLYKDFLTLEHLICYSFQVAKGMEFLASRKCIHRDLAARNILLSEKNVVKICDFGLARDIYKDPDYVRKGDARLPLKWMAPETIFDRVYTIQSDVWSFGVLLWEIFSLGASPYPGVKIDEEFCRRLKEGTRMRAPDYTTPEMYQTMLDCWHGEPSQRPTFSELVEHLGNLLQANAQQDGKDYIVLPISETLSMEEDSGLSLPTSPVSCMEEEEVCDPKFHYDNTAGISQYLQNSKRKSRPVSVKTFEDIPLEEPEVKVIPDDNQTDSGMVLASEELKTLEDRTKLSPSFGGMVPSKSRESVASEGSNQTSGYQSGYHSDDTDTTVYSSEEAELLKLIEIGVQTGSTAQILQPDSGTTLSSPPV
Sequence of B-Raf V600E (P15056 whole entry V600E): as the sequence (P15056 whole entry) above, with V600E counted along it

O=C(c1c(F)ccc(NS(=O)(=O)c2c(F)cccc2F)c1F)c1c[nH]c2ncc(Cl)cc12 [P-2003, N-[3-(5-Chloro-1H-pyrrolo[2,3-b]pyridine-3-carbonyl)-2,4-difluoro-phenyl]-2,6-difluoro-benzenesulfonamide]
not listed: A-Raf
≥ 5.00: all other assays above

N#Cc1cnc2[nH]cc(C(=O)c3c(F)ccc(NS(=O)(=O)c4ccccc4)c3F)c2c1 [P-2046, N-[3-(5-Cyano-1H-pyrrolo[2,3-b]pyridine-3-carbonyl)-2,4-difluoro-phenyl]-benzenesulfonamide]
not listed: Kdr | MAP4K4 | Fms
≥ 5.00: all other assays above

COc1ccnc2[nH]cc(C(=O)c3c(F)ccc(NS(=O)(=O)c4ccc(C(F)(F)F)cc4)c3F)c12 [P-2047, N-[2,4-Difluoro-3-(4-methoxy-1H-pyrrolo[2,3-b]pyridine-3-carbonyl)-phenyl]-4-trifluoromethyl-benzenesulfonamide]
not listed: Kdr | MAP4K4 | Fms
≥ 5.00: all other assays above

CCCS(=O)(=O)Nc1ccc(F)c(C(=O)c2c[nH]c3ncc(CCCN4CCCC4)cc23)c1F [P-2248, Propane-1-sulfonic acid {2,4-difluoro-3-[5-(3-pyrrolidin-1-yl-propyl)-1H-pyrrolo[2,3-b]pyridine-3-carbonyl]-phenyl}-amide]
≥ 5.00: B-Raf V600E | A-Raf | Kdr | B-Raf | TEC | C-Raf

CCCS(=O)(=O)Nc1ccc(F)c(C(=O)c2c[nH]c3ncc(CO)cc23)c1F [P-2250, Propane-1-sulfonic acid [2,4-difluoro-3-(5-hydroxymethyl-1H-pyrrolo[2,3-b]pyridine-3-carbonyl)-phenyl]-amide]
≥ 5.00: B-Raf V600E | A-Raf | Kdr | B-Raf | TEC | C-Raf

CCCS(=O)(=O)Nc1ccc(F)c(C(=O)c2c[nH]c3ncc(CN4CCN(C)CC4)cc23)c1F [P-2257, Propane-1-sulfonic acid {2,4-difluoro-3-[5-(4-methyl-piperazin-1-ylmethyl)-1H-pyrrolo[2,3-b]pyridine-3-carbonyl]-phenyl}-amide]
≥ 5.00: B-Raf V600E | A-Raf | B-Raf | TEC | C-Raf

C#Cc1ccnc2[nH]cc(C(=O)c3c(F)ccc(NS(=O)(=O)CCC)c3F)c12 [P-2261, Propane-1-sulfonic acid [3-(4-ethynyl-1H-pyrrolo[2,3-b]pyridine-3-carbonyl)-2,4-difluoro-phenyl]-amide]
not listed: MAP4K4 | Fms | Kit
≥ 5.00: all other assays above

CS(=O)(=O)Nc1ccc(F)c(C(=O)c2c[nH]c3nccc(C#N)c23)c1F [P-2292, N-[3-(4-Cyano-1H-pyrrolo[2,3-b]pyridine-3-carbonyl)-2,4-difluoro-phenyl]-methanesulfonamide]
≥ 5.00: B-Raf V600E | A-Raf | Kdr | TEC | C-Raf

CS(=O)(=O)c1cccc(-c2cnc3[nH]cc(C(=O)c4cc(NS(=O)(=O)C5CCCC5)ccc4F)c3c2)c1 [P-2445, Cyclopentanesulfonic acid {4-fluoro-3-[5-(3-methanesulfonyl-phenyl)-1H-pyrrolo[2,3-b]pyridine-3-carbonyl]-phenyl}-amide]
not listed: A-Raf
≥ 5.00: all other assays above
